Source: patent US10716790B2, “Method for treating cancer by combined use” (priority 2015, dated 2020)

Columns and labels:
[1] = system: human acute myeloid leukemia cell line MOLM-13 cells having a FLT3-ITD mutation and wild-type TP53; assay: In vivo effect of combined use on subcutaneously transplanted MOLM-13 tumors in NOD-SCID mice; conditions: oral; for TGI (%): 17 days after tumor inoculation
Description: (§1) Human acute myeloid leukemia cell line MOLM-13 cells having a FLT3-ITD mutation and wild-type TP53 were suspended to 5×10^7 cells/mL using phosphate-buffered saline. 0.1 mL of the prepared cell suspension was subcutaneously transplanted to each NOD-SCID mouse (male, 5 to 7 weeks old). On 6 days after the tumor inoculation, after confirmation that the average tumor volume exceeded 100 mm^3, the mice were randomized (N=6/group) on the basis of their tumor volume values. […] The administration was performed once a day for 5 consecutive days (6 to 10 days after the tumor inoculation) from the date of randomization (6 days after the tumor inoculation), and after a 2-day drug holiday, performed once a day for 4 consecutive days (13 to 16 days after the tumor inoculation). The length (mm) and width (mm) of tumor were measured over time using an electronic digital caliper. Tumor growth inhibition % (TGI %) on the date of assessment (17 days after the tumor inoculation) calculated according to calculation formula (4) shown below was used in evaluation. Also, the body weights were measured over time using an automatic balance for small animals, and body weight change % was calculated according to calculation formula (5) shown below to assess the influence of drug administration on the body weights. In addition, the results of the last body weight measurement were used in dose calculation. TGI (%)=(1−A/B)×100 (4)
A: Average tumor volume of the compound-administered group on the date of assessment (*)
B: Average tumor volume of the untreated control group on the date of assessment (*)
(§2) *: The tumor volume was calculated according to ½×[Major axis of tumor]×[Minor axis of tumor]×[Minor axis of tumor]. Body weight change (%)=Average body weight change % of the individuals Body weight change % of each individual=[…] (5)

[2] = Body weight change of MOLM-13 tumor-bearing NOD-SCID mice under drug administration; type: in vivo, mouse; conditions: oral
Description: as §1, §2
BWn: Body weight on day n
BWs: Body weight on the start day of administration

[3] = DS-3032b 25 mg/kg, day 6 after tumor inoculation
[4] = DS-3032b 25 mg/kg, day 8 after tumor inoculation
[5] = DS-3032b 25 mg/kg, day 10 after tumor inoculation
[6] = DS-3032b 25 mg/kg, day 13 after tumor inoculation
[7] = DS-3032b 25 mg/kg, day 15 after tumor inoculation
[8] = DS-3032b 25 mg/kg, day 17 after tumor inoculation
[9] = DS-3032b 50 mg/kg, day 6 after tumor inoculation
[10] = DS-3032b 50 mg/kg, day 8 after tumor inoculation
[11] = DS-3032b 50 mg/kg, day 10 after tumor inoculation
[12] = DS-3032b 50 mg/kg, day 13 after tumor inoculation
[13] = DS-3032b 50 mg/kg, day 15 after tumor inoculation
[14] = DS-3032b 50 mg/kg, day 17 after tumor inoculation

Q: What does the source list for CC1(C)CCC2(CC1)N[C@@H](C(=O)N[C@@H]1CC[C@@H](C(N)=O)OC1)[C@H](c1ccnc(Cl)c1F)[C@]21C(=O)Nc2cc(Cl)ccc21.Cc1ccc(S(=O)(=O)O)cc1 [Compound A, (3′R,4′S,5′R)—N-[(3R,6S)-6-carbamoyltetrahydro-2H-pyran-3-yl]-6″-chloro-4′-(2-chloro-3-fluoropyridin-4-yl)-4,4-dimethyl-2″-oxo-1″,2″-dihydrodispiro[cyclohexane-1,2′-pyrrolidine-3′,3″-indole]-5′-carboxamide tosylate]?
A: TGI (%) ([1]; Compound A 25 mg/kg): 38%; TGI (%) ([1]; Compound A 50 mg/kg): 82%; Estimated tumor volume (mm^3), average [1, 3]: 169 mm^3; Estimated tumor volume (mm^3), average [1, 4]: 266 mm^3; Estimated tumor volume (mm^3), average [1, 5]: 425 mm^3; Estimated tumor volume (mm^3), average [1, 6]: 812 mm^3; Estimated tumor volume (mm^3), average [1, 7]: 983 mm^3; Estimated tumor volume (mm^3), average [1, 8]: 1661 mm^3; Estimated tumor volume (mm^3), average [1, 9]: 162 mm^3; Estimated tumor volume (mm^3), average [1, 10]: 195 mm^3; Estimated tumor volume (mm^3), average [1, 11]: 210 mm^3; Estimated tumor volume (mm^3), average [1, 12]: 325 mm^3; Estimated tumor volume (mm^3), average [1, 13]: 375 mm^3; Estimated tumor volume (mm^3), average [1, 14]: 467 mm^3; Body weight change (%), average [2, 3]: 0.0%; Body weight change (%), average [2, 4]: 2.1%; Body weight change (%), average [2, 5]: 3.1%; Body weight change (%), average [2, 6]: 6.4%; Body weight change (%), average [2, 7]: 8.0%; Body weight change (%), average [2, 8]: 10.6%; Body weight change (%), average [2, 9]: 0.0%; Body weight change (%), average [2, 10]: 1.5%; Body weight change (%), average [2, 11]: 2.7%; Body weight change (%), average [2, 12]: 5.5%; Body weight change (%), average [2, 13]: 6.8%; Body weight change (%), average [2, 14]: 5.8%

Q: Which “Body weight change (%), average” value ([2]; Quizartinib 0.5 mg/kg, day 6 after tumor inoculation) does the source give for CC(C)(C)c1cc(NC(=O)Nc2ccc(-c3cn4c(n3)sc3cc(OCCN5CCOCC5)ccc34)cc2)no1 [Quizartinib, N-(5-tert-butyl-isoxazol-3-yl)-N′-{4-[7-(2-morpholin-4-yl-ethoxy)imidazo[2,1-b][1,3]benzothiazol-2-yl]phenyl}urea, reference compound] here?
A: The value was 0.0%.

Q: And the “Body weight change (%), average” value ([2]; Quizartinib 0.5 mg/kg, day 8 after tumor inoculation)?
A: Its value is 4.2%.

Q: And the “Body weight change (%), average” value ([2]; Quizartinib 0.5 mg/kg, day 10 after tumor inoculation)?
A: Its value is 4.2%.

Q: And the “Body weight change (%), average” value ([2]; Quizartinib 0.5 mg/kg, day 13 after tumor inoculation)?
A: The value was 8.5%.

Q: And the “Body weight change (%), average” value ([2]; Quizartinib 0.5 mg/kg, day 15 after tumor inoculation)?
A: The value was 9.6%.

Q: And the “Body weight change (%), average” value ([2]; Quizartinib 0.5 mg/kg, day 17 after tumor inoculation)?
A: The value was 10.7%.

Q: And the “Body weight change (%), average” value ([2]; Quizartinib 1 mg/kg, day 6 after tumor inoculation)?
A: Its value is 0.0%.

Q: And the “Body weight change (%), average” value ([2]; Quizartinib 1 mg/kg, day 8 after tumor inoculation)?
A: Its value is 0.2%.

Q: What about the “Body weight change (%), average” value ([2]; Quizartinib 1 mg/kg, day 10 after tumor inoculation) of the same compound?
A: Its value is 1.8%.

Q: What about the “Body weight change (%), average” value ([2]; Quizartinib 1 mg/kg, day 13 after tumor inoculation) of the same compound?
A: The value was 4.6%.

Q: What about the “Body weight change (%), average” value ([2]; Quizartinib 1 mg/kg, day 15 after tumor inoculation) of the same compound?
A: Its value is 5.1%.

Q: And the “Body weight change (%), average” value ([2]; Quizartinib 1 mg/kg, day 17 after tumor inoculation)?
A: Its value is 5.8%.
